Experimental data reported in patent publication US20160270687A1, “System and Method for Quantitative Magnetic Resonance (MR) Analysis Using T1 Mapping” (priority 2013, published 2016).
Peptide text beside a SMILES is read from it. * marks the point of attachment. X1 = O=C(O)CN1CCN(CC(=O)O)CCN(CC(=O)NCCCn2cc(COCC(COCc3cn(CCCNC(=O)CN4CCN(CC(=O)O)CCN(CC(=O)O)CCN(CC(=O)O)CC4)nn3)(COCc3cn(CCCNC(=O)CN4CCN(CC(=O)O)CCN(CC(=O)O)CCN(CC(=O)O)CC4)nn3)NC(=O)CCN3C(=O)CC(*)C3=O)nn2)CCN(CC(=O)O)CC1

Tests used:
LN-229 flank tumors = assay: Dynamic quantitative T1 mapping and Gd concentration maps of flank tumors
Method: Representative bright-field images of GFP-positive LN-229 flank tumors for animals where 0.2 mmol Gd/kg of Optimark™, scrambled-Tris-(Gd-DOTA)3, or SBK2-Tris-(Gd-DOTA)3 was administered are presented in row 1210 in columns 1202, 1204, and 1206 respectively. GFP fluorescence images of LN-229 tumor cells for each of the three contrast agents are presented in row 1220 in columns 1202, 1204, and 1206 respectively. T2 high resolution images are presented in row 1230 in columns 1202, 1204, and 1206 respectively. T2 low-resolution images with a region of interest (ROI) illustrated by a dashed line are presented in row 1240 in columns 1202, 1204, and 1206 respectively show the tumor area used for T1 map quantification. Axial T1-weighted images of LN-229 flank tumor at baseline or pre-agent (e.g., before injection of contrast agents) are shown in row 1250. Axial T1-weighted images of LN-229 flank tumor at time of maximum contrast (e.g., 15 minutes) following intravenous injection are shown in row 1260.
High-resolution T2-weighted images were obtained for each mouse using a RARE (Rapid Acquisition with Relaxation Enhancement) acquisition (TR/TE=5000/40 ms, 20 slices, resolution=0.117×0.117×0.5 mm) to select the imaging slice for the dynamic T1 mapping acquisition. The dynamic T1 data were then acquired using a snapshot GRE (Gradient Recalled Echo) acquisition with inversion recovery preparation (10 inversion times [263, 775, 1287, 1799, 2311, 2823, 3335, 3847, 4359, and 4871 ms], GRE imaging readout TR/TE=4.0 ms/1.3 ms, flip angle=10 degrees, resolution=0.234×0.234×1 mm, Field of View (FOV)=30×30 mm, and 10 signal averages). The total acquisition time for each T1 mapping scan was 2.5 min. After five baseline/pre-agent T1 mapping scans, Optimark™, the targeted SBK2-Tris-(Gd-DOTA)3 agent, or the non-targeted scrambled-Tris-(Gd-DOTA)3 control was injected at a dose of 0.2 mmol of Gd/kg followed by a 50 μL flush of saline. T1 maps were then consecutively acquired every 2.5 min over 62.5 min.
The MRI data were imported into MATLAB enabling estimation of both pixel-wise T1 relaxation time maps as well as mean intra-tumoral T1 changes using an ROI analysis. The T1 maps were obtained from the T1 mapping acquisition mono-exponential models. To compare the multiple imaging agents, the pre and post-agent T1 maps were then used to calculate maps of percent change in T1, which is directly related to the concentration of each agent within the tumor. To calculate Gd concentrations, T1 relaxivity constants determined at 9.4 T were used along with T1 map values.
As the T1 maps and T2-weighted images were co-registered, the ROI analysis was performed by outlining the ROI on the T2-weighted images. The same ROI was then applied to all of the T1 maps and the average value in the ROI was calculated as a measure of tumor uptake of each imaging agent. Plots of normalized T1 values in the tumor were calculated by dividing the post-agent injection T1 maps by an average of the 5 baseline (pre-agent injection) tumor T1 values. This normalization was performed to limit the effects of variation in the pre-contrast tumor T1 values on the comparison of the molecular imaging agents.
As an imaging marker for contrast agent retention, a slope analysis was performed on the normalized T1 values. Slopes were calculated for Optimark™, scrambled-Tris-(Gd-DOTA)3, and SBK2-Tris-(Gd-DOTA)3 by using all of the mean tumor T1 values from 15 minutes to 60 minutes following agent administration. For each pair of contrast agents, normalized T1 map values at each time point, along with the slopes of post-agent T1 curves were evaluated for statistical significance using a two-tailed Student's t-test, assuming statistical significance at p<0.05.

LN-229 flank tumor = assay type: in vivo, mice
Method: FIG. 8 illustrates that the SBK2 based specific molecular imaging agent improves the enhancement of LN-229 tumors. FIG. 8 illustrates representative T1-weighted axial 2D gradient images of LN-229 flank tumor-bearing mice before (pre-injection) (column 840) and at 1 minute (column 842), 5 minutes (column 844), 10 minutes (column 846), 20 minutes (column 848), and 30 minutes (column 850) after the intravenous injection of ProHance™ (row 810), scrambled Tris-(Gd-DOTA)3 (row 820), or SBK2-Tris-(Gd-DOTA)3 (row 830) at 0.1 mmol Gd/kg. FIG. 8 also illustrates axial 2D gradient images heat map overlays on the tumor to indicate contrast intensity. FIG. 8 illustrates heat maps with overlays for T1-weighted axial 2D gradient images of LN-229 flank tumor-bearing mice before (pre-injection) (column 882) and at 1 minute (column 884), 5 minutes (column 886), 10 minutes (column 888), 20 minutes (column 890), and 30 minutes (column 892) after the intravenous injection of ProHance™ (row 860), scrambled Tris-(Gd-DOTA)3 (row 870), or SBK2-Tris-(Gd-DOTA)3 (row 880) at 0.1 mmol Gd/kg.
The SBK2 based specific molecular imaging agent was developed as a diagnostic imaging tool. To function as an imaging tool, SBK2 was conjugated to a Gd chelate [SBK2-Tris-(Gd-DOTA)3] to generate an MR-detectable molecular imaging agent. The ability of SBK2-Tris-(Gd-DOTA)3 to function as a contrast agent was compared to a macrocyclic gadolinium chelate (Gadoteridol, ProHance™) and to a scrambled molecular imaging agent linked to gadolinium [scrambled Tris-(Gd-DOTA)3]. SBK2-Tris-(Gd-DOTA)3 labeled human glioma tumors with a high level of contrast persisting for two hours. […] SBK2-Tris-(Gd-DOTA)3 labeling of PTPμ extracellular fragment retained in the tumor microenvironment is a more specific MR molecular imaging agent than a nonspecific gadolinium chelate.
FIG. 9 illustrates quantitation of LN-229 flank tumor enhancement following administration of control or targeted contrast agents in xenograft mice. Graphs 900 and 910 illustrate dose-response plots of LN-229 flank tumor contrast to noise ratio (CNR) with ProHance™ or SBK2-Tris-(Gd-DOTA)3 respectively administered at 0.03 mmol Gd/kg or 0.1 mmol Gd/kg.
Data is shown as means±SEM. […] At 60 to 120 minutes post-injection, the ProHance™ cleared more rapidly than SBK2-Tris-(Gd-DOTA)3 resulting in greater than 110% increase in SBK2-Tris-(Gd-DOTA)3 tumor CNR compared with ProHance™ (P<0.001). The SBK2-Tris-(Gd-DOTA)3 tumor CNR was approximately 53% greater than the scrambled Tris-(Gd-DOTA)3 tumor CNR at 60 to 90 minutes (P<0.001).

[1] = system: orthotopic Gli36Δ5 glioma tumors; assay: Quantitative T1 mapping of orthotopic brain tumors with Optimark; conditions: for time of peak contrast following the injection: 0.1 mmol/kg
From the text: This is because T1 mapping is a quantitative MR imaging method that yields the absolute T1 relaxation values as opposed to the relative signal intensity values in T1-weighted images.
High-resolution T2-weighted MR images were acquired to localize the tumor and enable identification of the largest cross-section of tumor on MRI.
Graph 2300 illustrates mean Gd concentrations in the tumor before and after intravenous administration of 0.1 (line 2310) or 0.2 mmol/kg (line 2320) Optimark™ in cohorts of nu/nu athymic mice bearing orthotopic glioma tumors. Data is plotted as means+/−standard error. The mean tumor Gd concentration was measured at baseline or pre-agent and after contrast agent injection was measured every 2.5 minutes for 30 minutes.

CC(O)CN1CCN(CC(=O)[O-])CCN(CC(=O)[O-])CCN(CC(=O)[O-])CC1.[Gd+3] (centres unmarked) [Prohance™, gadoteridol, reference compound]
time after peak within which contrast agent concentration begins to diminish (LN-229 flank tumors; mouse, in vivo): thirty

C-GFTQPETGTDNDLWSVDNEK [scrambled, reference compound]
time after peak within which contrast agent concentration begins to diminish (LN-229 flank tumors; mouse, in vivo): thirty

C-GEGDDFNWEQVNTLTKPTSD [SBK2]
retention time of the agent in the sample / glioblastoma (LN-229 flank tumor; mouse, in vivo): up to two | time contrast agent concentration remains at peak levels (LN-229 flank tumors; mouse, in vivo): at least sixty

COCCNC(=O)CN(CCN(CCN(CC(=O)[O-])CC(=O)NCCOC)CC(=O)[O-])CC(=O)[O-].[Gd+3] [Optimark™, gadoversetamide]
time of peak enhancement in the tumors (mean normalized T1) ([1]; 0.1 mmol/kg dose): 5 min | change in normalized T1 values ([1]; 0.1 mmol/kg dose, 5 minutes): modest decrease | distinction between T1 value of normal brain and tumor ([1]; 0.1 mmol/kg dose, 30 minutes): no distinction | time of peak contrast following the injection ([1]; T1-weighted FLASH images): five | time of peak contrast following the injection ([1]; snapshot GRE images, T1 maps, Gd concentration maps): two and a half | time of peak enhancement in the tumors (mean normalized T1) ([1]; 0.2 mmol/kg dose): 5 min | change in normalized T1 values compared to 0.1 mmol/kg ([1]; 0.2 mmol/kg dose, 5 minutes): larger decrease | distinction between normalized T1 values of normal brain and tumor ([1]; 0.2 mmol/kg dose, 30 minutes): weak distinction | time after peak within which contrast agent concentration begins to diminish (LN-229 flank tumors; mouse, in vivo): thirty

CC(C)C[C@H](NC(=O)[C@@H](NC(=O)[C@H](CC(N)=O)NC(=O)[C@@H](NC(=O)[C@H](CCC(N)=O)NC(=O)[C@H](CCC(=O)O)NC(=O)[C@H](Cc1c[nH]c2ccccc12)NC(=O)[C@H](CC(N)=O)NC(=O)[C@H](Cc1ccccc1)NC(=O)[C@H](CC(=O)O)NC(=O)[C@H](CC(=O)O)NC(=O)CNC(=O)[C@H](CCC(=O)O)NC(=O)CNC(=O)[C@@H](N)CSC1CC(=O)N(CCC(=O)NC(COCc2cn(CCCNC(=O)CN3CCN(CC(=O)O)CCN(CC(=O)O)CCN(CC(=O)O)CC3)nn2)(COCc2cn(CCCNC(=O)CN3CCN(CC(=O)O)CCN(CC(=O)O)CCN(CC(=O)O)CC3)nn2)COCc2cn(CCCNC(=O)CN3CCN(CC(=O)O)CCN(CC(=O)O)CCN(CC(=O)O)CC3)nn2)C1=O)C(C)C)[C@@H](C)O)C(=O)N[C@H](C(=O)N[C@@H](CCCCN)C(=O)N1CCC[C@H]1C(=O)N[C@H](C(=O)N[C@@H](CO)C(=O)N[C@@H](CC(=O)O)C(=O)O)[C@@H](C)O)[C@@H](C)O (some centres unmarked) [SBK2-Tris-(Gd-DOTA)3] (H-C(X1)GEGDDFNWEQVNTLTKPTSD-OH; N-terminus and C-terminus assumed)
increase in tumor CNR over scrambled Tris-(Gd-DOTA)3 or ProHance (LN-229 flank tumor; 15 to 45 minutes post-injection, 0.1 mmol Gd/kg intravenous, P<0.001): ~55% | tumor CNR greater than the scrambled Tris-(Gd-DOTA)3 tumor CNR (LN-229 flank tumor; 60 to 90 minutes, 0.1 mmol Gd/kg intravenous, P<0.001): approximately 53% | increase in tumor CNR compared with ProHance (LN-229 flank tumor; 60 to 120 minutes post-injection, 0.1 mmol Gd/kg intravenous, P<0.001): greater than 110% | contrast enhancement compared with ProHance alone (LN-229 flank tumor; mouse, in vivo): significantly higher | Gd concentration in tumor at 60 minutes (LN-229 flank tumors; 0.2 mmol Gd/kg): remains at near peak levels | retention judged from slope of mean tumor normalized T1 values (LN-229 flank tumors; 0.2 mmol Gd/kg, measured every 2.5 minutes for 62.5 minutes): highest retention | distribution of T1 changes in the tumor (LN-229 flank tumors; 30 minutes and 60 minutes, larger tumors): uniformly distributed throughout the tumor | time the agent remains in the tumor (LN-229 flank tumors; compared with non-specific molecular imaging agents): 1 h | non-specific uptake compared with scrambled-Tris-(Gd-DOTA)3 (LN-229 flank tumors; mouse, in vivo): nearly identical non-specific uptake | concentration accumulated in tumor relative to scrambled-Tris-(Gd-DOTA)3 (LN-229 flank tumors; tumors containing the PTPμ fragment): about twice
